# ± gives the expanded uncertainty stated by the source.
# How the values were obtained:
# [1] = refractive index (Na D-line) (dimensionless); settings: 298.2 K; 101.33 kPa; Liquid; Standard Abbe refractometry
# [2] = 298.2 K; 101.33 kPa; Liquid; Pycnometric method
# [3] = refractive index (Na D-line) (dimensionless); wn = mass fraction of the nth substance listed; settings: 101.3 kPa, Liquid, Standard Abbe refractometry
# [4] = wn = mass fraction of the nth substance listed; settings: 298.2 K; 101.3 kPa; Liquid; Pycnometric method; w1 = 0.2
compound,measurement,setting,value
CCCCCCCCCCO [decan-1-ol],refractive index,[1],1.4346 ± 0.012
same,mass density,[2],826.86 ± 2 kg/m3
CCCCCCCCCCO [decan-1-ol] + O,refractive index,"[3]; 298.2 K, w2 = 0.9975",1.33545 ± 0.012
same,refractive index,"[3]; 308.2 K, w2 = 0.9938",1.33463 ± 0.012
same,refractive index,"[3]; 318.2 K, w2 = 0.9901",1.33317 ± 0.012
same,refractive index,"[3]; 328.2 K, w2 = 0.9864",1.33224 ± 0.012
O=C(O)CC(O)(CC(=O)O)C(=O)O [citric acid] + O,refractive index,"[3]; 298.2 K, w1 = 0.2",1.356 ± 0.012
same,mass density,[4],1085.86 ± 2 kg/m3
O [water],refractive index,[1],1.3324 ± 0.012

# Reference: the NIST ThermoML archive (doi:10.1021/acs.jced.7b01135)
